Experimental findings from US5624950A, “Perhydroisoindole derivatives as substance P antagonists” (Rhone-Poulenc Rorer S.A., priority 1993, dated 1997) are described below.

This test concerns capillary permeability brought about by septide (substance P agonist). Nature of the test: inhibition of the increase of capillary permeability brought about by septide. The test is classed as in vivo. Particulars: Cavia porcellus, guinea pig, septide-induced capillary permeability. An excerpt: The study of certain isoindole derivatives of general formula (I) in the technique of A. Saria et al., Arch.

Structures are written as SMILES.

Usually ED50 stands for the dose at which the effect has come halfway, by size or by number of responders. The low end stands for greater potency, the high end for weaker potency.

On to `COc1ccccc1[C@H](C)C(=O)N1C[C@H]2C[C@H](C)C[C@](O)(c3ccccc3OC)[C@H]2C1` (relative stereo) [Example 1, (3aR*,4R*,6S*,7aS*)-4-(2-methoxyphenyl)-2-[2-(S)-(2-methoxyphenyl)propionyl]-6-methyl-4-perhydroisoindolol], for which the ED50 by setting is: (iv) 0.07 mg/kg; (po) 3 to 10 mg/kg.
